Measurements from ChEMBL document CHEMBL3046458, “Pyraclostrobin sensitivity of baseline and fungicide exposed isolates of Pyrenophora tritici-repentis” (Crop Prot, 2012).
Values after ≈ are worked out from the molar mass of the structure shown.

Key:
Format in all cases: functional, organism-based
[1] = test system: Pyrenophora tritici-repentis; assay: Antifungal activity against Pyrenophora tritici-repentis isolate Ptr 86-4 assessed as inhibition of conidia germination after 6 hr incubation; conditions: Ptr 86-4, 6 h
[2] = test system: Pyrenophora tritici-repentis; assay: Antifungal activity against Pyrenophora tritici-repentis isolate Ptr 92 115-2-3 assessed as inhibition of conidia germination after 6 hr incubation; conditions: Ptr 92 115-2-3, 6 h
[3] = test system: Pyrenophora tritici-repentis; assay: Antifungal activity against Pyrenophora tritici-repentis isolate Ptr 92 145-2-4 assessed as inhibition of conidia germination after 6 hr incubation; conditions: Ptr 92 145-2-4, 6 h
[4] = test system: Pyrenophora tritici-repentis; assay: Antifungal activity against Pyrenophora tritici-repentis isolate Ptr 1A assessed as inhibition of conidia germination after 6 hr incubation
[5] = test system: Pyrenophora tritici-repentis; assay: Antifungal activity against Pyrenophora tritici-repentis isolate Ptr 1A assessed as inhibition of conidia germination after 6 hr incubation in presence of SHAM
[6] = test system: Pyrenophora tritici-repentis; assay: Antifungal activity against Pyrenophora tritici-repentis isolate Ptr 90 DL-22 assessed as inhibition of conidia germination after 6 hr incubation in presence of SHAM; conditions: Ptr 90 DL-22, 6 h
[7] = test system: Pyrenophora tritici-repentis; assay: Antifungal activity against Pyrenophora tritici-repentis isolate Ptr 92 148-1-1 assessed as inhibition of conidia germination after 6 hr incubation; conditions: Ptr 92 148-1-1, 6 h
[8] = test system: Pyrenophora tritici-repentis; assay: Antifungal activity against Pyrenophora tritici-repentis isolate Ptr 92 120-2-2 assessed as inhibition of conidia germination after 6 hr incubation; conditions: Ptr 92 120-2-2, 6 h
[9] = test system: Pyrenophora tritici-repentis; assay: Antifungal activity against Pyrenophora tritici-repentis isolate Ptr 4b assessed as inhibition of conidia germination after 6 hr incubation
[10] = test system: Pyrenophora tritici-repentis; assay: Antifungal activity against Pyrenophora tritici-repentis isolate Ptr 92 120-2-2 assessed as inhibition of conidia germination after 6 hr incubation in presence of SHAM; conditions: Ptr 92 120-2-2, 6 h
[11] = test system: Pyrenophora tritici-repentis; assay: Antifungal activity against Pyrenophora tritici-repentis isolate Ptr 92 115-2-3 assessed as inhibition of conidia germination after 6 hr incubation in presence of SHAM; conditions: Ptr 92 115-2-3, 6 h
[12] = test system: Pyrenophora tritici-repentis; assay: Antifungal activity against Pyrenophora tritici-repentis isolate Ptr 90 DL-22 assessed as inhibition of conidia germination after 6 hr incubation; conditions: Ptr 90 DL-22, 6 h
[13] = test system: Pyrenophora tritici-repentis; assay: Antifungal activity against Pyrenophora tritici-repentis isolate Ptr 90 P7d assessed as inhibition of conidia germination after 6 hr incubation
[14] = test system: Pyrenophora tritici-repentis; assay: Antifungal activity against Pyrenophora tritici-repentis isolate Ptr 92 148-1-1 assessed as inhibition of conidia germination after 6 hr incubation in presence of SHAM; conditions: Ptr 92 148-1-1, 6 h
[15] = test system: Pyrenophora tritici-repentis; assay: Antifungal activity against Pyrenophora tritici-repentis isolate Ptr 4b assessed as inhibition of conidia germination after 6 hr incubation in presence of SHAM
[16] = test system: Pyrenophora tritici-repentis; assay: Antifungal activity against Pyrenophora tritici-repentis isolate Ptr 86-4 assessed as inhibition of conidia germination after 6 hr incubation in presence of SHAM; conditions: Ptr 86-4, 6 h
[17] = test system: Pyrenophora tritici-repentis; assay: Antifungal activity against Pyrenophora tritici-repentis isolate Ptr 92 119-2-3 assessed as inhibition of conidia germination after 6 hr incubation; conditions: Ptr 92 119-2-3, 6 h
[18] = test system: Pyrenophora tritici-repentis; assay: Antifungal activity against Pyrenophora tritici-repentis isolate Ptr 92 145-2-4 assessed as inhibition of conidia germination after 6 hr incubation in presence of SHAM; conditions: Ptr 92 145-2-4, 6 h
[19] = test system: Pyrenophora tritici-repentis; assay: Antifungal activity against Pyrenophora tritici-repentis isolate Ptr 90 P7d assessed as inhibition of conidia germination after 6 hr incubation in presence of SHAM
[20] = test system: Pyrenophora tritici-repentis; assay: Antifungal activity against Pyrenophora tritici-repentis isolate Ptr 92 119-2-3 assessed as inhibition of conidia germination after 6 hr incubation in presence of SHAM; conditions: Ptr 92 119-2-3, 6 h

COC(=O)N(OC)c1ccccc1COc1ccn(-c2ccc(Cl)cc2)n1 [PYRACLOSTROBIN]
EC50 [1]: 3.4 ng/mL (≈ 0.00877 µM)
EC50 [2]: 12.4 ng/mL (≈ 0.032 µM)
EC50 [3]: 3.8 ng/mL (≈ 0.0098 µM)
EC50 [4]: 9.9 ng/mL (≈ 0.0255 µM)
EC50 [5]: 2.2 ng/mL
EC50 [6]: 1.6 ng/mL
EC50 [7]: 5.1 ng/mL (≈ 0.0132 µM)
EC50 [8]: 8.1 ng/mL (≈ 0.0209 µM)
EC50 [9]: 3.8 ng/mL (≈ 0.0098 µM)
EC50 [10]: 2.1 ng/mL
EC50 [11]: 2.3 ng/mL
EC50 [12]: 11.8 ng/mL (≈ 0.0304 µM)
EC50 [13]: 3.3 ng/mL (≈ 0.00851 µM)
EC50 [14]: 2.3 ng/mL
EC50 [15]: 1.6 ng/mL
EC50 [16]: 1.6 ng/mL
EC50 [17]: 3.8 ng/mL (≈ 0.0098 µM)
EC50 [18]: 1.5 ng/mL
EC50 [19]: 1.6 ng/mL
EC50 [20]: 2 ng/mL
